Where two headings read alike, the source gives them in different places.
Columns and labels:
[1] = Rate of hydrolysis of 5-fluoro-2'-deoxyuridine derivatives by esterase; format: in vitro ADME, porcine; conditions: pig, liver esterase, pH 7.00, 37° C., read-out: t 1/2 (time for 1/2 of the derivative to be converted into parent compound)
Protocol: Rate of hydrolysis of 5-fluoro-2'-deoxyuridine derivatives by esterase […] A 10 μg/ml isotonic solution of the experimental compound in a phosphate buffer (pH 7.00) was prepared and the […] (manufactured by Sigma) extracted from the porcine liver was added to the solution at 37° C. in such a way as to provide the enzyme concentration ranging from 0.03 units/ml to 150 units/ml. Then the sample (10 μl) was injected into an HPLC column periodically to determine the amount of 5-fluoro-2'-deoxyuridine release by the enzyme reaction.

[2] = test system: mouse leukemia cells L1210; test: Antitumor activity against mouse leukemia L1210, intraperitoneal administration; conditions: for Max. ILS (%) / ILS30 (dose required to increase lifespan 30%): i.p. once a day for 5 consecutive days
Description: Antitumor activity of 5-fluoro-2'-deoxyuridine derivatives (in intraperitoneal administration)
Experiments were made with the 5-fluoro-2'-deoxyuridine derivatives of this invention in order to know its antitumor effect against mouse leukemia cells L1210 in comparison with its parent compound 5-fluoro-2'-deoxyuridine and other known antitumor agents.
BDF1 mice (male, 6-week-old, Ca 24 g, in groups of 5 mice), which were abdominally implanted with 10^5 cells of mouse leukemia L1210, which had been collected after 7-day cultivation in other mice, were used in the experiments.
The respective agents were given to the experimental mice intraperitoneally once a day for 5 consecutive days starting 24 hours after the implantation of tumor cells.
The antitumor effect of the respective agents were indicated by the rate of increase in the length of the survival period obtained from the groups given the agents in contrast with the length of the survival period of the control group (not given the agents).
The dose, which is required to increase the lifespan of the experimental mice 30% as compared with the control group, is indicated by ILS30 and the dose, which is required to effect the maximum increase of lifespan (Max. ILS(%)), is indicated by ILS max. ILS max./ILS30 is to represent the therapeutic index which indicates the safety of the agents.

mouse leukemia L1210 = test: Antitumor activity against mouse leukemia L1210, oral administration; format: in vivo, BDF1 mice; conditions: for Antitumor effect in oral administration compared with 5-fluoro-2'-deoxyuridine and 3',5'-dioctanoyl-5-fluoro-2'-deoxyuridine: L1210-bearing mice, result in words
Protocol: (§1) The respective agents were administered orally three times, i.e. on the first day, third day, and fifth day, starting 24 hours after the implantation of tumor cells.

[3] = Change in body weight of L1210-bearing mice, oral administration; format: in vivo, BDF1 mice; conditions: days 1-4
Protocol: as §1

[4] = Release of FUdR from the compound due to the enzyme system in the plasma; format: in vitro ADME; conditions: 4×10^-5 M compound (FUdR 9.85 μg/ml), 20% rat plasma, pH 7.0, 37° C.
Protocol: Behavior to release FUdR from the compound due to the enzyme system in the plasma
The release rates of 5-fluoro-2'-deoxyuridine (FUdR) from the compound of this invention at 37° C. in the rat plasma (20%), diluted with 0.1M phosphate buffer, pH 7.0, were measured.
The compound of this invention was added to the plasma diluted with an isotonic solution of phosphate buffer to a concentration of 4×10^-5 M (corresponding to FUdR 9.85 μg/ml) and was incubated at 37° C. The sample (10 μl) was injected into an HPLC column periodically to determine the amount (μg/ml) of 5-fluoro-2'-deoxyuridine released by the enzymatic reaction.

[5] = pH 7, enzyme concentration 6.0 units/ml
[6] = days 1, 3, 5, dose 10 mg/kg/day
[7] = days 1, 3, 5, dose 30 mg/kg/day
[8] = days 1, 3, 5, dose 100 mg/kg/day
[9] = days 1, 3, 5, dose 300 mg/kg/day
[10] = pH 7, enzyme concentration 150.0 units/ml
[11] = pH 7, enzyme concentration 0.045 units/ml

Row | Structure (SMILES) | Max. ILS (%) ([2]; L1210-bearing BDF1 mice) | Therapeutic index (ILS max./ILS30) ([2]; mouse, in vivo, ip) | ILS30 (dose required to increase lifespan 30%) ([2]; L1210-bearing BDF1 mice) | ILS (%) (mouse leukemia L1210; [6]) | ILS (%) (mouse leukemia L1210; [7]) | ILS (%) (mouse leukemia L1210; [8]) | ILS (%) (mouse leukemia L1210; [9]) | Change in body weight (1-4 d, g/mouse) ([3]; dose 10 mg/kg/day) | Change in body weight (1-4 d, g/mouse) ([3]; dose 30 mg/kg/day) | Change in body weight (1-4 d, g/mouse) ([3]; dose 100 mg/kg/day) | Change in body weight (1-4 d, g/mouse) ([3]; dose 300 mg/kg/day) | Release rate of 5-fluoro-2'-deoxyuridine ([4]; after 100 min) | other results
1 | O=C(O)CCCCC(=O)OC[C@H]1O[C@@H](n2cc(F)c(=O)[nH]c2=O)C[C@@H]1OC(=O)CCCCC(=O)O [3',5'-diadipoyl-5-fluoro-2'-deoxyuridine] | 58% | 20.0 | – | – | – | – | – | – | – | – | – | – | half-life [1, 5]: 439 min; half-life ([1]; pH 7, enzyme concentration 12.0 units/ml): 216 min
2 | CCCC(=O)OC[C@H]1O[C@@H](n2cc(F)c(=O)[nH]c2=O)C[C@@H]1OC(=O)CCC [3',5'-dibutyryl-5-fluoro-2'-deoxyuridine] | – | – | – | – | – | – | – | – | – | – | – | – | half-life ([1]; pH 7, enzyme concentration 0.75 units/ml): 42.4 min; half-life ([1]; pH 7, enzyme concentration 1.50 units/ml): 21.7 min
3 | CCCCCCCCCC(=O)OC[C@H]1O[C@@H](n2cc(F)c(=O)[nH]c2=O)C[C@@H]1OC(=O)CCCCCCCCC [3',5'-didecanoyl-5-fluoro-2'-deoxyuridine] | 52% | 10.0 | 18 µmol·days/kg | 7% | 26% | 15% | 20% | -0.8 g/mouse | -1.4 g/mouse | -2.4 g/mouse | -3.8 g/mouse | 4.7 µg/mL | half-life ([1]; pH 7, enzyme concentration 0.3 units/ml): 140 min; half-life ([1]; pH 7, enzyme concentration 0.6 units/ml): 72 min; Antitumor effect in oral administration compared with 5-fluoro-2'-deoxyuridine and 3',5'-dioctanoyl-5-fluoro-2'-deoxyuridine (mouse leukemia L1210): much higher antitumor effect; Release rate of 5-fluoro-2'-deoxyuridine ([4]; after 200 min): 6.7 µg/mL; Release rate of 5-fluoro-2'-deoxyuridine ([4]; after 300 min): 7.8 µg/mL; Release rate of 5-fluoro-2'-deoxyuridine ([4]; after 400 min): 8.5 µg/mL; Release rate of 5-fluoro-2'-deoxyuridine ([4]; after 500 min): 9.3 µg/mL
4 | CCCCCCCCCCCC(=O)OC[C@H]1O[C@@H](n2cc(F)c(=O)[nH]c2=O)C[C@@H]1OC(=O)CCCCCCCCCCC [3',5'-didodecanoyl-5-fluoro-2'-deoxyuridine] | 62% | 45.0 | 1.0 µmol·days/kg | 0% | 5% | 15% | 40% | +1.0 g/mouse | +1.0 g/mouse | 0 g/mouse | -2.6 g/mouse | 1.2 µg/mL | half-life [1, 10]: 4000 min; Antitumor effect in oral administration compared with 5-fluoro-2'-deoxyuridine and 3',5'-dioctanoyl-5-fluoro-2'-deoxyuridine (mouse leukemia L1210): much higher antitumor effect; Release rate of 5-fluoro-2'-deoxyuridine ([4]; after 200 min): 2.2 µg/mL; Release rate of 5-fluoro-2'-deoxyuridine ([4]; after 300 min): 2.9 µg/mL; Release rate of 5-fluoro-2'-deoxyuridine ([4]; after 400 min): 3.8 µg/mL; Release rate of 5-fluoro-2'-deoxyuridine ([4]; after 500 min): 4.2 µg/mL
5 | O=C(O)CCCC(=O)OC[C@H]1O[C@@H](n2cc(F)c(=O)[nH]c2=O)C[C@@H]1OC(=O)CCCC(=O)O [3',5'-diglutaryl-5-fluoro-2'-deoxyuridine] | – | – | – | – | – | – | – | – | – | – | – | – | half-life [1, 10]: 437 min
6 | CCCCCC(=O)OC[C@H]1O[C@@H](n2cc(F)c(=O)[nH]c2=O)C[C@@H]1OC(=O)CCCCC [3',5'-dihexanoyl-5-fluoro-2'-deoxyuridine, reference compound] | 38% | 4.3 | 10 µmol·days/kg | – | – | – | – | – | – | – | – | 7.8 µg/mL | half-life [1, 11]: 32.5 min; half-life ([1]; pH 7, enzyme concentration 0.075 units/ml): 24 min; half-life ([1]; pH 7, enzyme concentration 0.15 units/ml): 10 min; Release rate of 5-fluoro-2'-deoxyuridine ([4]; after 200 min): 9.85 µg/mL
7 | CCCCCCCC(=O)OC[C@H]1O[C@@H](n2cc(F)c(=O)[nH]c2=O)C[C@@H]1OC(=O)CCCCCCC [3',5'-dioctanoyl-5-fluoro-2'-deoxyuridine, reference compound] | – | – | – | -5% | 3% | -5% | 5% | +1.8 g/mouse | +1.6 g/mouse | -2.8 g/mouse | -2.2 g/mouse | 9.85 µg/mL | half-life ([1]; pH 7, enzyme concentration 0.03 units/ml): 18.2 min; half-life [1, 11]: 15.6 min
8 | CCCCCCCCCCCCCCCC(=O)OC[C@H]1O[C@@H](n2cc(F)c(=O)[nH]c2=O)C[C@@H]1OC(=O)CCCCCCCCCCCCCCC [3',5'-dipalmitoyl-5-fluoro-2'-deoxyuridine, reference compound] | 55% | 5.0 | 0.8 µmol·days/kg | – | – | – | – | – | – | – | – | – | –
9 | CCC(=O)OC[C@H]1O[C@@H](n2cc(F)c(=O)[nH]c2=O)C[C@@H]1OC(=O)CC [3',5'-dipropanoyl-5-fluoro-2'-deoxyuridine] | – | – | – | – | – | – | – | – | – | – | – | – | half-life ([1]; pH 7, enzyme concentration 3.0 units/ml): 47.4 min; half-life [1, 5]: 24.2 min
10 | O=C(O)CCC(=O)OC[C@H]1O[C@@H](n2cc(F)c(=O)[nH]c2=O)C[C@@H]1OC(=O)CCC(=O)O [3',5'-disuccinyl-5-fluoro-2'-deoxyuridine] | – | – | – | – | – | – | – | – | – | – | – | – | half-life [1, 10]: 3220 min
11 | CCCCCCCCCCCCCC(=O)OC[C@H]1O[C@@H](n2cc(F)c(=O)[nH]c2=O)C[C@@H]1OC(=O)CCCCCCCCCCCCC [3',5'-ditetradecanoyl-5-fluoro-2'-deoxyuridine] | 61% | – | – | 27% | 33% | 17% | – | -0.8 g/mouse | -1.4 g/mouse | -2.4 g/mouse | – | – | Antitumor effect in oral administration compared with 5-fluoro-2'-deoxyuridine and 3',5'-dioctanoyl-5-fluoro-2'-deoxyuridine (mouse leukemia L1210): much higher antitumor effect; ILS (%) (mouse leukemia L1210; days 1, 3, 5, dose 1 mg/kg/day): 3%; ILS (%) (mouse leukemia L1210; days 1, 3, 5, dose 3 mg/kg/day): 3%; Change in body weight (1-4 d, g/mouse) ([3]; dose 1 mg/kg/day): +2.2 g/mouse; Change in body weight (1-4 d, g/mouse) ([3]; dose 3 mg/kg/day): +2.0 g/mouse
12 | O=c1[nH]c(=O)n([C@H]2C[C@H](O)[C@@H](CO)O2)cc1F [5-fluoro-2'-deoxyuridine] | 54% | – | 200 µmol·days/kg | 15% | 10% | 15% | 10% | +0.6 g/mouse | +1.8 g/mouse | -4.2 g/mouse | -5.2 g/mouse | – | Therapeutic index (ILS max./ILS30) ([2]; i.p., L1210-bearing BDF1 mice): 2.0

From US4757139A, “5-fluoro-2'-deoxyuridine derivative, processes for preparing same and antitumor composition containing the same” (Teijin Limited, priority 1983, dated 1988)
